Data set [1] relates to SK-N-MC neuroepithelioma cells. Briefly: internalized 59Fe uptake from 59Fe-transferrin. In kind it is cell-based, human. The following applies: SK-N-MC; 3 hrs at 37° C.; chelators 50 μM, DFO 100 μM; FIG. 2B screening experiment. As for the experimental part:
The effect of chelators on ^59Fe uptake from ^59Fe-Tf and ^59Fe release from prelabelled cells was studied using standard procedures reported previously (Richardson et al., 1994, J. Lab Clin. Med. 124 660-71). The amount of ^59Fe internalized by the cells was measured by incubation with the general protease pronase (1 mg/ml) for 30 min at 4° C. to remove membrane-bound ^59Fe and Tf (Richardson et al., 1990; Baker et al., 1998, Biochim. Biophys. Acta 1380 21-30). […] To determine the ability of the chelators to inhibit ^59Fe uptake from ^59Fe-Tf (0.75 μM). […] Table 2. The effect of DFO, 311, […], or PCBHH on internalized ^59Fe uptake from ^59Fe-transferrin by BE-2 neuroblastoma cells, SK-N-MC neuroepithelioma cells, and SK-Mel-28 melanoma cells. Cells were incubated with the chelators and ^59Fe-transferrin (0.75 μM) for 3 h at 37° C., washed, and incubated for 30 min at 4° C. with pronase (1 mg/ml) to separate the internalized from the membrane-bound ^59Fe. All chelators were screened at a concentration of 50 μM except for DFO which was examined at 100 μM. Results are mean±SD (three determinations) from a typical experiment.

Data set [2] relates to 59Fe-loaded reticulocytes. Kind of data set: mobilisation of 59Fe from 59Fe-loaded reticulocytes (mitochondrial Fe overload model). In kind it is cell-based, rabbit. The settings on record: for cellular 59Fe released from 59Fe-loaded reticulocytes, 1 h reincubation (FIG. 9): chelator concentration 200 μM (range 10–200 μM), reincubated 1 h at 37° C.; for cellular 59Fe mobilized from 59Fe-loaded reticulocytes after 240 min: chelators 200 μM, 240 min of incubation. Here is the method: FIG. 7. The effect of reincubation time with the Fe chelators on ^59Fe mobilization from ^59Fe-loaded reticulocytes. The cells were labelled with ^59Fe-transferrin (3.75 μM) in the presence of the heme synthesis inhibitor, succinylacetone (1 mM), and incubated with the cells for 1 h at 37° C. The ^59Fe-labelled reticulocytes were then incubated with the chelators (200 μM) for 15–240 min at 37° C. The results are Mean±SD (3 determinations) in a typical experiment of three performed.
FIG. 9. The effect of chelator concentration on ^59Fe mobilization from ^59Fe-loaded reticulocytes. The cells were labelled with ^59Fe-transferrin (3.75 μM) in the presence of the heme synthesis inhibitor, succinylacetone (1 mM), and incubated with the cells for 1 h at 37° C. The ^59Fe-labelled reticulocytes were then incubated with the chelators (10–200 μM) for 15–240 min at 37° C. The results are Mean±SD (3 determinations) in a typical experiment of three performed.
Reticulocytosis was induced by standard procedures (Richardson, D. R., Ponka, P and Vyoral, D (1996) Blood 87, 3477–3488) in New Zealand white rabbits by repeated phlebotomy by cardiac puncture using a protocol approved by the McGill University Animal Care Committee. Reticulocytes were identified based on staining with new methylene blue, and cell counts were determined using an improved Neubauer counting chamber.
Reticulocytes were obtained from chronically bled rabbits as described above and were incubated with 1 mM succinylacetone (SA: Sigma) to inhibit heme synthesis. After a 15 min preincubation in the presence of SA, ^59Fe-Tf ([…]) was added and incubated with the cells for 1 H at 37° C. with shaking. After this incubation the reticulocytes were washed three times with ice-cold PBS to remove non-specifically bound ^59Fe-Tf. The washed ^59Fe-labelled reticulocytes (30–35 μL) were incubated in buffered salt solution (250 μL final volume) with the apochelators. The SA was present in all incubations with the chelators to prevent the utilization of non-heme ^59Fe for heme synthesis. After the incubation, ^59Fe was measured both in washed reticulocytes and in the medium, and the percentage of ^59Fe mobilized from the reticulocytes was then calculated.

Data set [3] has as its system iron-regulatory proteins (IRPs). Kind of data set: iron regulatory protein gel-retardation assay (IRP-RNA binding activity). The following applies: SK-N-MC cells, 20 hr incubation; chelators 25 μM, DFO 100 μM, FAC 100 μg/ml. In kind it is cell-based, human. Here is the method: FIG. 5. The effect of the chelators on the RNA-binding activity of the iron-regulatory proteins (IRPs) in the SK-N-MC neuroepithelioma cells. Cells were incubated for 20 h with either medium alone (control), ferric ammonium citrate (FAC: 100 μg/ml), DFO (100 μM), or the other chelators (25 μM).
A gel-retardation assay was used to measure the interaction between the IRPs and IRE using established techniques (Leibold et al., […]. Proc. Natl. Acad. Sci. USA 85 2171–5; Müllner et al., 1989 Cell 58 373–82). Briefly, after incubation with medium alone (control) or medium containing ferric ammonium citrate (100 μg/ml: Aldrich Ltd., Sydney, Australia) or the chelator. […] cells were washed with ice-cold phosphate-buffered saline (PBS) and lysed at 4° C. in 40 μl of ice-cold Munro extraction buffer (10 mM HEPES, pH 7.6, 3 mM MgCl2, 40 mM KCl, 5% glycerol, 1 MM dithiothreitol and 0.5% Nonidet P-40). After lysis, the samples were then centrifuged at 10,000 rpm for 3 mins at 4° C. to remove nuclei and the supernatant stored at −70° C. Frozen cytoplasmic extracts were thawed on ice and then centrifuged at 15,000 rpm for 10 min at 4° C. The protein concentration of the soluble supernatant was determined using the BioRad protein assay (BioRad Ltd., USA). Samples of cytoplasmic extracts were diluted to a protein concentration of 100 μg/ml in Munro buffer without Nonidet P-40 and 1 μg aliquots were analyzed for IRP by incubation with 0.1 ng (approximately 1×10^5 cpm) of ^32P-labelled pGL66 RNA transcript (Leibold et al., 1988). The riboprobe was transcribed in vitro from linearized plasmid templates using SP6 RNA polymerase in the presence of α-^32P UTP (Dupont, NEN). This latter reaction was performed using the Promega Riboprobe In Vitro Transcription Kit (Promega, Madison, Wis., USA). The probe was subsequently purified on a 6% urea/PAGE gel. To form RNA-protein complexes, cytoplasmic extracts containing 1 μg of protein were incubated for 10 mins at room temperature with the ^32P-labelled riboprobe. Unprotected probe was degraded by incubation with 1 U of RNAse T1 for 10 mins at room temperature. Heparin (Sigma) at a final concentration of 5 mg/ml was then added and incubated with the extract for another 10 min at room temperature to exclude non-specific binding. RNA-protein complexes were analyzed in 6% non-denaturing polyacrylamide gels at 4° C. as described by Konarska et al., 1986, Cell 46 845–55. Gels were dried, covered in plastic film and exposed to Kodak XAR films at −70° C. with an intensifying screen.
An important effect of intracellular Fe depletion using DFO is the activation of RNA-binding activity of the iron regulatory proteins (IRP's) (Hentze et al., 1996, Proc. Natl. Acad. Sci. USA 93 8175–82). […] The present inventors examined the effect of a 20 hr incubation with 311, PIH and the PCIH analogues (25 μM) on IRP-RNA binding activity in SK-N-MC cells. In all experiments, DFO (100 μM) was used as a positive control to deplete cells of Fe and increase IRP-RNA binding activity. In contrast, ferric ammonium citrate (FAC: 100 μg/ml) was used to donate Fe to cells and reduce IRP-RNA binding.

A short description of the next data set: aqueous solubility. In kind it is physicochemical. The settings on record: water / aqueous solutions.
The subject of data set [4] is SK-N-MC neuroepithelioma cells. Briefly: 59Fe release from prelabelled cells (iron efflux). The following applies: 3 hr labelling, 3 hr reincubation, ligands 50 μM, DFO 100 μM, FIG. 2A screening experiment. In kind it is cell-based, human. As for the experimental part: The effect of chelators on ^59Fe uptake from ^59Fe-Tf and ^59Fe release from prelabelled cells was studied using standard procedures reported previously (Richardson et al., 1994, J. Lab Clin. Med. 124 660–71). The amount of ^59Fe internalized by the cells was measured by incubation with the general protease pronase (1 mg/ml) for 30 min at 4° C. to remove membrane-bound ^59Fe and Tf (Richardson et al., 1990; Baker et al., 1998, Biochim. Biophys. Acta 1380 21–30).
The efflux of ^59Fe from SK-N-MC cells was examined after a 3 hr labelling period with ^59Fe-Tf (0.75 μM) followed by a 3 hr reincubation in the presence and absence of DFO (100 μM) or the remainder of the ligands at 50 μM (FIG. 2A).
Table 1. The effect of DFO, 311, PCTH, PCBH, or PCBHH on ^59Fe release from BE-2 neuroblastoma cells, SK-N-MC neuroepithelioma cells, and SK-Mel-28 melanoma cells. Cells were labeled for 3 h at 37° C. with ^59Fe-transferrin (0.75 μM), washed, and then reincubated with the chelators for 3 h at 37° C. […] Results are Mean±SD of three determinations in a typical experiment.

The subject of data set [5] is iron-regulatory proteins (IRPs). Kind of data set: iron regulatory protein gel-retardation assay (IRP-RNA binding activity). In kind it is cell-based, human.
Data set [6] has as its system SK-N-MC neuroepithelioma cells. Briefly: 3H-thymidine, 3H-leucine or 3H-uridine incorporation. In kind it is cell-based, human. The following applies: 20 hr with chelators 50 μM, DFO 100 μM, then label 2 h, Mean±SD. Here is the method: Labelling of cells with ^3H-thymidine (20 Ci/mmol: Dupont NEN, MA, U.S.A.), ^3H-uridine (42.7 Ci/mmol/Dupont NEN, MA, U.S.A.) and ^3H-leucine (52 Ci/mmol: Dupont NEN) was estimated after precipitation with trichloroacetic acid (TCA). After a 20 hr incubation with the chelators, ^3H-leucine, ^3H-uridine or ^3H-thymidine (1 μCi/ml) were then added for 2 hrs at 37° C. Subsequently, petri dishes containing cell cultures were placed on ice and washed four times with ice-cold Hanks' balanced salt solution (BSS) and the cells detached from the plate using 1 mM EDTA in Ca/Mg-free saline. The cells were then pelleted by centrifugation, the supernatant removed and the pellet frozen at −70° C. After thawing the cells on ice, 1 ml of ice-cold 20% TCA was added and the solution then vortexed and kept on ice for 1 hr with periodic mixing. This solution was then centrifuged at 15,000 rpm for 15 mins at 4° C. and the supernatant removed. The pellet was then washed twice with 1 ml of ice-cold 10% TCA. The pellet was dissolved in 0.5 ml of 1 M NaOH and transferred to scintillation tubes with 3 ml of scintillant. Radioactivity was measured on a β-scintillation counter (LKB Wallace, Finland).
Table 3. The effect of the chelators on ^3H-thymidine, ^3H-leucine, or ^3H-uridine incorporation into SK-N-MC neuroepithelioma cells. Cells were incubated for 20 hr at 37° C. with either DFO (100 μM) or the other chelators (50 μM). Following this, either ^3H-thymidine, ^3H-leucine, or ^3H-uridine (1 μCi/mL) were added and the cells incubated for an additional 2 h at 37° C. (see Methods for details). Results are Mean±SD (4–5 determinations) from a typical experiment of 2–4 experiments performed.

For data set [7] the following is noted: Fe-overloaded patients (Olivieri et al.); cited from earlier work.

“And” between values parts separate entries of the source, which are not always exact repeats. Equal entries are not always repeated. Where two headings read alike, the source gives them in different places.

As for `O=C(NN=Cc1ccccn1)c1ccncc1` [PCIH, 2-pyridylcarboxaldehyde isonicotinoyl hydrazone], the “59Fe uptake from 59Fe-Tf, % of the control value (FIG. 2B)” value (“59Fe uptake from 59Fe-Tf, %” below) in data set [1] is reported as “slightly more effective than DFO”. In addition, the “cellular 59Fe mobilized from 59Fe-loaded reticulocytes after 15 min” value in data set [2] (chelator 200 μM, 15 min incubation, 37° C., FIG. 7, 3 determinations) stood at 21±1%. Further, the “cellular 59Fe released from 59Fe-loaded reticulocytes, 1 h reincubation (FIG. 9)” value (“cellular 59Fe released” for short) in data set [2] (3 determinations) was determined as 31±1%. The “cellular 59Fe release from reticulocytes as a function of incubation time (FIG. 7), rank in words” value in data set [2] (eight compounds, 200 μM, reincubated up to 240 min) is on record as “most effective”. Moreover, in data set [3], the “IRP-RNA binding activity compared to the control (FIG. 5)” value is “little effect”.
For the compound `Cl.O=C(NN=Cc1ccccn1)c1cccs1` [PCTH-HCl], the “aqueous solubility, in words” value in “aqueous solubility” was “lowest aqueous solubility of the series”.
As for `Nc1ccc(C(=O)NN=Cc2ccccn2)cc1` [PCAH, 2-pyridylcarboxaldehyde p-aminobenzoyl hydrazone], the “release of cellular 59Fe (FIG. 2A)” value in data set [4] is “did not appreciably increase”. Also, the “59Fe uptake from 59Fe-Tf, %” value in data set [1] is reported as “no effect”. Further, the “cellular 59Fe mobilized from 59Fe-loaded reticulocytes after 240 min” value in data set [2] (FIG. 7) amounted to 15%. For the same compound, in data set [3], the “IRP-RNA binding activity compared to the control (FIG. 5)” value was “decreased”.
ferric ammonium citrate [FAC]: in data set [5], the “IRP-RNA binding activity compared to the control (FIG. 5)” value is listed as “appreciable decrease”.
As for `Cl.Cl.O=C(NN=Cc1ccccn1)c1ccncc1` [PCIH-2HCl], the “aqueous solubility, in words” value in the data set “aqueous solubility” is “most soluble”.
As to `Cc1ncc(CO)c(C=NNC(=O)c2ccncc2)c1O` [PIH, pyridoxal isonicotinoyl hydrazone, reference compound], the “IRP-RNA binding activity at higher concentrations” value in data set [5] (higher concentrations than 25 μM, not specified) was “did increase”. The “cellular 59Fe released” value in data set [2] (3 determinations) is 18±1%. In data set [6], the “3H-Leucine incorporation, % Control” value amounted to 84 ± 5 % Control; the “3H-Thymidine incorporation, % Control” value is 52 % Control and 52 ± 9 % Control; the “3H-Uridine incorporation, % Control” value is reported as 56 ± 9 % Control. In data set [3], the “IRP-RNA binding activity compared to the control (FIG. 5)” value is listed as “little effect”.
With `O=C(NN=Cc1ccccn1)c1ccc(O)cc1` [PCHH, 2-pyridylcarboxaldehyde p-hydroxybenzoyl hydrazone], in data set [4], the “release of cellular 59Fe (FIG. 2A)” value was “did not appreciably increase”. Besides, the “59Fe uptake from 59Fe-Tf, %” value in data set [1] is on record as “no effect”. Besides, the “cellular 59Fe released” value in data set [2] (3 determinations) was “very low activity”. For the same compound, the “cellular 59Fe mobilized from 59Fe-loaded reticulocytes after 240 min” value in data set [2] (FIG. 7) worked out at 6%. Moreover, the “IRP-RNA binding activity compared to the control (FIG. 5)” value in data set [3] is listed as “decreased”.
On to `Cc1c(O)c(=O)ccn1C` [deferiprone, 1,2-dimethyl-3-hydroxypyrid-4-one], for which the “adverse outcome of treatment of patients” value in data set [7] is “hepatic fibrosis and an increase in liver Fe levels”.

The values above are taken from US6989397B1, “Iron chelators and uses thereof” (University of Queensland, priority 1999, dated 2006).
